Experimental data published in publication PMC3961306, “Comparison of the Cancer Gene Targeting and Biochemical Selectivities of All Targeted Kinase Inhibitors Approved for Clinical Use” (PLoS ONE, 2014).

Assays:
Experiment in all cases: Kinase profiling in a biochemical assay panel (mobility shift assays and ELISA), %-inhibition at 1 μM; selectivity entropy
[1] = biological target: panel of more than 300 wild-type and mutant kinases (313 kinase panel) (Homo sapiens, UniProt P49759)
[2] = biological target: T1, panel of more than 300 wild-type and mutant kinases (313 kinase panel) (Homo sapiens, UniProt Q9NWZ3)
T1 sequence (Q9NWZ3 1-460): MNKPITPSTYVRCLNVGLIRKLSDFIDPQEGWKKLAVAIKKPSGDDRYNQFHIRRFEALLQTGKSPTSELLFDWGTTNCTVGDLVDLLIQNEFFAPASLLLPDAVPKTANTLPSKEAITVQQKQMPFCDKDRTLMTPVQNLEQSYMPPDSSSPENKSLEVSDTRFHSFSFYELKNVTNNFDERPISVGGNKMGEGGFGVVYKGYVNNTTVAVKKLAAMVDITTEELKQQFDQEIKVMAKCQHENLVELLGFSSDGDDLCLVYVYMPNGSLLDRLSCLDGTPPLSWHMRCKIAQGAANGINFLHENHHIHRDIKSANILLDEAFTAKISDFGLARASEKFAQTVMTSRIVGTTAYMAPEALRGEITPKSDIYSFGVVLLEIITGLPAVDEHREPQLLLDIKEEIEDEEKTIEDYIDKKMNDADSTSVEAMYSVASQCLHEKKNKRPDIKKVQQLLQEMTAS

[3] = biological target: T2, panel of more than 300 wild-type and mutant kinases (313 kinase panel) (Homo sapiens, UniProt O15264)
T2 sequence (O15264 1-365): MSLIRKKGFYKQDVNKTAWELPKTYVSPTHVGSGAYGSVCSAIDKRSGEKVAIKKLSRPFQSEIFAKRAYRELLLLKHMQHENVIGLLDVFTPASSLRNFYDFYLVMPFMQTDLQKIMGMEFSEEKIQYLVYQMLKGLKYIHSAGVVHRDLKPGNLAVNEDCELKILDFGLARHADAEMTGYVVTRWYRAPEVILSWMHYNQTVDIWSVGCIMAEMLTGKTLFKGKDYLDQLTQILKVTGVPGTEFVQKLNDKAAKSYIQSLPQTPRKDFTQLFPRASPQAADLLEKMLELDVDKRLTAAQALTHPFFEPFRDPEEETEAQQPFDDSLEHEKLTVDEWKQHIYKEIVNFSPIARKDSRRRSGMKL

[4] = biological target: T3, panel of more than 300 wild-type and mutant kinases (313 kinase panel) (Homo sapiens, UniProt P52564)
T3 sequence (P52564 1-334): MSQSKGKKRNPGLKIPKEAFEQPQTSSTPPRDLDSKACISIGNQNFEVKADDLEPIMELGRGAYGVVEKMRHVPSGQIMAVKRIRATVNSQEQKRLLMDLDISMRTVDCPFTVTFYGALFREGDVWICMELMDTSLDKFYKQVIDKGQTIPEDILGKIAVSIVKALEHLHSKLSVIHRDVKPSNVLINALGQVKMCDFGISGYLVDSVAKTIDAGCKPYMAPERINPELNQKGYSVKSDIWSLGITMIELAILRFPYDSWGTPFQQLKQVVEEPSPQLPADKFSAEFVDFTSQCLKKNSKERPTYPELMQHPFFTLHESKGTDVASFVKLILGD

[5] = biological target: panel of more than 300 wild-type and mutant kinases (313 kinase panel) (Homo sapiens, UniProt P27361)
[6] = biological target: panel of more than 300 wild-type and mutant kinases (313 kinase panel) (Homo sapiens, UniProt Q9P0L2)
[7] = biological target: panel of more than 300 wild-type and mutant kinases (313 kinase panel) (Homo sapiens, UniProt P42685)
[8] = biological target: T4, panel of more than 300 wild-type and mutant kinases (313 kinase panel) (Homo sapiens, UniProt O15146)
T4 sequence (O15146 24-869): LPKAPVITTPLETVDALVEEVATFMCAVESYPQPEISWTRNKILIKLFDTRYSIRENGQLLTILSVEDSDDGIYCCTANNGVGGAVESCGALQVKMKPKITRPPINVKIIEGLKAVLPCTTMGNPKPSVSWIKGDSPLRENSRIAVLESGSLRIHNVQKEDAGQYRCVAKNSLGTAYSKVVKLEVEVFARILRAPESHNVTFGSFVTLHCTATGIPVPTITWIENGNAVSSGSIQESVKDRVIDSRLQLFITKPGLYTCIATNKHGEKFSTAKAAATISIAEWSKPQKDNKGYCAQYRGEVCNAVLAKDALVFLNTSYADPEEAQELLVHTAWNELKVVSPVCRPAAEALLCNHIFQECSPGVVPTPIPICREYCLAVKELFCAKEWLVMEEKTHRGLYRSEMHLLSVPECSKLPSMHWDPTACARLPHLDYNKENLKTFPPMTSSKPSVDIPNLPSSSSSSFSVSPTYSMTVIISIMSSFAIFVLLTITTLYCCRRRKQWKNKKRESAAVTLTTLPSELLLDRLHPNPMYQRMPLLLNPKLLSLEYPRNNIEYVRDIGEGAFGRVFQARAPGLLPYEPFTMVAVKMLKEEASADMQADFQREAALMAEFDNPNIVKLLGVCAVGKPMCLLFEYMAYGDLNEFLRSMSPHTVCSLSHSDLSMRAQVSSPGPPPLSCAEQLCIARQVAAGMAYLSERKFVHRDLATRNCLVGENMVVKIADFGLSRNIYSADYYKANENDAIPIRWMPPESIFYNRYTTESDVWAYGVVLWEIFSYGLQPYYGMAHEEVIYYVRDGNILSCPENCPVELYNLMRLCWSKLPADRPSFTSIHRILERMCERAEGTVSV

[9] = biological target: panel of more than 300 wild-type and mutant kinases (313 kinase panel) (Homo sapiens, UniProt Q8IU85)
[10] = kinase MAP2K6, compound at 1 μM

panel of more than 300 wild-type and mutant kinases (313 kinase panel) (Homo sapiens, UniProt P49759), sequence (P49759 whole entry, change not shown): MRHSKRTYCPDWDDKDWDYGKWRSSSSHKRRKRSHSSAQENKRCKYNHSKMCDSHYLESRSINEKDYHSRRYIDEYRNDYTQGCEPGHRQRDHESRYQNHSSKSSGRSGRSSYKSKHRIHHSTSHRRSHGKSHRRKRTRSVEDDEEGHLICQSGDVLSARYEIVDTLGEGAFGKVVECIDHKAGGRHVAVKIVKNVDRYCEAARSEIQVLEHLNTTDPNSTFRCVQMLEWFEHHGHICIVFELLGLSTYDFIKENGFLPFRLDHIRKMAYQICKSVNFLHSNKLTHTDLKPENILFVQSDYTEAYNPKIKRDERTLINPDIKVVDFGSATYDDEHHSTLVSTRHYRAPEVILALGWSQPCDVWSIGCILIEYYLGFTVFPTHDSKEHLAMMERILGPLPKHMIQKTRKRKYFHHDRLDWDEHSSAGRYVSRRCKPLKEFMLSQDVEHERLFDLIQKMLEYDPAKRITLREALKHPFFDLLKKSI
panel of more than 300 wild-type and mutant kinases (313 kinase panel) (Homo sapiens, UniProt P27361), sequence (P27361 whole entry, change not shown): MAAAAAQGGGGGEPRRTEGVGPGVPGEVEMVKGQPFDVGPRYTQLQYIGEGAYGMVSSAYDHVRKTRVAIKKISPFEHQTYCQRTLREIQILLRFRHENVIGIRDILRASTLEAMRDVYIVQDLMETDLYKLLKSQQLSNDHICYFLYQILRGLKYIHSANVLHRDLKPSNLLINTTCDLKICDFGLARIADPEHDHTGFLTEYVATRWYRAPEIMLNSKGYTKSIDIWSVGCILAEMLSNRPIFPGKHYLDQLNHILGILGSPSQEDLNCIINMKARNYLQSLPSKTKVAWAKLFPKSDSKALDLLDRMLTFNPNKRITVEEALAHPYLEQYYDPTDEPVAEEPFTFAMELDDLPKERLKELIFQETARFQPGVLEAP
panel of more than 300 wild-type and mutant kinases (313 kinase panel) (Homo sapiens, UniProt Q9P0L2), sequence (Q9P0L2 whole entry, change not shown): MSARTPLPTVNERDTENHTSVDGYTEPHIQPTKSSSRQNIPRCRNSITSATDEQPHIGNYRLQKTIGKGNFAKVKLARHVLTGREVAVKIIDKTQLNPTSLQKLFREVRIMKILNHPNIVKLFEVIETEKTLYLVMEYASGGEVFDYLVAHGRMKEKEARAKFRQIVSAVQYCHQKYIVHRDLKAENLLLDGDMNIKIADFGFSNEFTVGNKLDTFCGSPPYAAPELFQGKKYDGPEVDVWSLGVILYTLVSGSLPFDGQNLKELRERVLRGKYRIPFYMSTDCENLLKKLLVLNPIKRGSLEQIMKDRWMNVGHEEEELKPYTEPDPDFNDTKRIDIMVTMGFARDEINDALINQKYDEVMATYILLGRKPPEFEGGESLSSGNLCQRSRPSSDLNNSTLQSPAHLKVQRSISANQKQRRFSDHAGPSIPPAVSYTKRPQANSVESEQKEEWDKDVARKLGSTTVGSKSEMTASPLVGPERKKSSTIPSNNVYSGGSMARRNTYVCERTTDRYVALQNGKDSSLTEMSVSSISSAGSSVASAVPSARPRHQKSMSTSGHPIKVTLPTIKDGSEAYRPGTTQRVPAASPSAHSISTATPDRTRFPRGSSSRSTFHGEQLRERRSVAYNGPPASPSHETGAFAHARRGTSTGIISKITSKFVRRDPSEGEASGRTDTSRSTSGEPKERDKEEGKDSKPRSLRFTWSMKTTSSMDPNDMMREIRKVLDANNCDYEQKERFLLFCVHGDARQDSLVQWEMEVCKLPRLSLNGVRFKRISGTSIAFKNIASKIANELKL
panel of more than 300 wild-type and mutant kinases (313 kinase panel) (Homo sapiens, UniProt P42685), sequence (P42685 whole entry, change not shown): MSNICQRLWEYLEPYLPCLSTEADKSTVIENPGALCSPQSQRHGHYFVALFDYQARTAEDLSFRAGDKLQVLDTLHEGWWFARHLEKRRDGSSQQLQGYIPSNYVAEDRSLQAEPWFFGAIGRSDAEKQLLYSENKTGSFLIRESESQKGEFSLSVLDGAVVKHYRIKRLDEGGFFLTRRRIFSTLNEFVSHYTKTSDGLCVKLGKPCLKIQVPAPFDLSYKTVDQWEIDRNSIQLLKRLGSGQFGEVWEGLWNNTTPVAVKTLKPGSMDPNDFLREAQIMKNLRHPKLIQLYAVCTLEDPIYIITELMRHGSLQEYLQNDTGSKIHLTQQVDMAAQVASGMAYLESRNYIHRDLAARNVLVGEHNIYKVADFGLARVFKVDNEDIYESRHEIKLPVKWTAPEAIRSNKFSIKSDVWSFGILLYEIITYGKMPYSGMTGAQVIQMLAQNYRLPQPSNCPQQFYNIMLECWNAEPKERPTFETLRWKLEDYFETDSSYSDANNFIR

SMILES	%-inhibition, CLK1 ([1]; kinase CLK1, 1 μM compound) [%]	%-inhibition of IRAK4 ([2]; kinase IRAK4, compound at 1 μM) [%]	%-inhibition of p38δ ([3]; kinase p38δ, 1 μM) [%]	%-inhibition of MAP2K6 [4, 10] [%]	%-inhibition of Erk1 ([5]; kinase Erk1, compound at 1 μM) [%]	%-inhibition of MARK1 ([6]; kinase MARK1, compound at 1 μM) [%]	%-inhibition of FRK ([7]; kinase FRK, compound at 1 μM) [%]	%-inhibition of MUSK ([8]; kinase MUSK, 1 μM) [%]	%-inhibition, CaMK1δ ([9]; kinase CaMK1δ, 1 μM compound) [%]	%-inhibition, CLK1 ([1]; 1 µM) [%]	%-inhibition of IRAK4 ([2]; 1 µM) [%]	%-inhibition of p38δ ([3]; 1 µM) [%]	%-inhibition of MAP2K6 ([4]; 1 µM) [%]	%-inhibition of Erk1 ([5]; 1 µM) [%]	%-inhibition of MARK1 ([6]; 1 µM) [%]	%-inhibition of FRK ([7]; 1 µM) [%]	%-inhibition of MUSK ([8]; 1 µM) [%]	%-inhibition, CaMK1δ ([9]; 1 µM) [%]
C[C@@H](Oc1cc(-c2cnn(C3CCNCC3)c2)cnc1N)c1c(Cl)ccc(F)c1Cl [crizotinib]	13	8	-3.41	19	-2	27	26	99	-4									
CC(C)(C)c1nc(-c2cccc(NS(=O)(=O)c3c(F)cccc3F)c2F)c(-c2ccnc(N)n2)s1 [dabrafenib]	7		-3.43	1.34	-1.62	-15	81	16										
COc1cc2c(Nc3ccc(Br)cc3F)ncnc2cc1OCC1CCN(C)CC1 [vandetanib]	14		0.0923	18	-1.55	-14	79	42	-3									
O=S(=O)(c1cccc2cnccc12)N1CCCNCC1 [fasudil]	32	-4.68	-4.39	2.2	-3	-9	-3	2	-4									
C#Cc1cccc(Nc2ncnc3cc(OCCOC)c(OCCOC)cc23)c1 [erlotinib]										21	3	6	6	0.357	11	41	12	-3.68
COc1cc2nccc(Oc3ccc(NC(=O)C4(C(=O)Nc5ccc(F)cc5)CC4)cc3)c2cc1OC [cabozantinib]	7	-4	47	83	-1.33	-1		95	-1.37									
Cc1ccc(C(=O)Nc2ccc(CN3CCN(C)CC3)c(C(F)(F)F)c2)cc1C#Cc1cnc2cccnn12 [ponatinib]		29					100	100										
